The target of test [1] is T1, rSNORF33 (Rattus norvegicus, UniProt Q923Y9). Nature of the test: Cl- currents in Xenopus oocytes expressing rSNORF33 and CFTR (voltage clamp). The class given is cell-based. The note with it: test compound 100 μM except where noted; 100 nM TYR.
For test [2], the target named is T1, rSNORF33. The experiment in a line: Intracellular cAMP release in rSNORF33-transfected COS-7 cells. Also noted: expressed in transfected cells; host or cells: COS-7 (transient). As to conditions: for Agonist activity at cloned rSNORF33 receptor: data not shown. The class given is cell-based. On the procedure: The receptor-mediated stimulation or inhibition of cyclic AMP (cAMP) formation may be assayed in cells expressing the mammalian receptors. Cells are plated in 96-well plates or other vessels and preincubated in a buffer such as HEPES buffered saline (NaCl (150 mM), CaCl2 (1 mM), KCl (5 mM), glucose (10 mM)) supplemented with a phosphodiesterase inhibitor such as 5 mM theophylline, with or without protease inhibitor cocktail (For example, a typical inhibitor cocktail contains 2 μg/ml aprotinin, […] leupeptin, and 10 μg/ml phosphoramidon.) for 20 min at 37° C., in 5% CO2. Test compounds are added with or without […] forskolin and incubated for an additional 10 min at 37° C. The medium is then aspirated and the reaction stopped by the addition of 100 mM HCl or other methods. The plates are stored at 4° C. for 15 min, and the cAMP content in the stopping solution is measured by radioimmunoassay. Radioactivity may be quantified using a gamma counter equipped with data reduction software. Specific modifications may be performed to optimize the assay for the receptor or to alter the detection method of cAMP.
COS-7 cells were transiently transfected with rSNORF33 gene using the calcium phosphate method and plated in 96-well plates. 48 hours after transfection, cells were washed twice with Dulbecco's phosphate buffered saline (PBS) supplemented with 10 mM HEPES, 10 mM glucose, 5 mM theophylline and 10 μM pargyline and were incubated in the same buffer for 20 min at 37° C., in […] 5% CO2. Test compounds were added and cells were incubated for an additional 10 min at 37° C. The medium was then aspirated and the reaction stopped by the addition of 100 mM HCl. The plates were stored at −20° C. for 2-5 days. For cAMP measurement, plates were thawed and the cAMP content in each well was measured by radioimmunoassay cAMP Scintillation Proximity Assay (Amersham Pharmacia Biotech). Radioactivity was quantified using microbeta Trilux counter (Wallac).

Test [3] has as its target T1, rSNORF33. Nature of the test: [3H]-TYR binding (saturation and displacement) to rSNORF33-transfected COS-7 membranes. Also noted: expressed in transfected cells; host or cells: COS-7 (transient). As to conditions: for Ki: rSNORF33 in transfected COS-7 membranes, 2–4 experiments, read-out: Mean Ki ± S.D.M., displacement of [3H]-tyramine. On the procedure:
(§1) Radioligand binding assays were performed by diluting membranes prepared from cells expressing the receptor (with co-expression of the rat G-protein alpha S subunit for human SNORF33) in 25 mM Gly-Gly buffer (Sigma, pH=7.4 @ 0° C.) containing 5 mM ascorbate and 10 μM pargyline (final protein concentration in assay=100-300 μg/ml). Membranes were then incubated with either [^3H]-TYR (American Radiochemicals, specific activity 60 mCi/μmole) or [^3H]-T (Amersham, specific activity 98 mCi/μmole) in the presence or absence of competing ligands on ice for 30 min in a total volume of 250 μl in 96 well microtiter plates. The bound ligand was separated from free by filtration through GF/B filters presoaked in 0.5% polyethyleneimine (PEI), using Tomtec (Wallac) or Brandel Cell Harvester vacuum filtration device. After addition of Ready Safe (Beckman) scintillation fluid, bound radioactivity was quantitated using a Trilux (Wallac) scintillation counter (approximately 20% counting efficiency of bound counts). Data was fit to non-linear curves using GraphPad Prism.
(§2) In this manner, agonist or antagonist compounds that bind to the receptor may be identified as they inhibit the binding of the labeled ligand to the membrane protein of cells expressing the said receptor. Non-specific binding was defined as the amount of radioactivity remaining after incubation of membrane protein in the presence of 10 μM of the unlabeled amine corresponding to the radioligand used. In equilibrium saturation binding assays, membrane preparations or intact cells transfected with the receptor are incubated in the presence of increasing concentrations of the labeled compound to determine the binding affinity of the labeled ligand. The binding affinities of unlabeled compounds may be determined in equilibrium competition binding assays, using a fixed concentration of labeled compound in the presence of varying concentrations of the displacing ligands.

In another test the target is T2, hSNORF33 (Homo sapiens, UniProt Q96RJ0).
T2 sequence (Q96RJ0 1-339): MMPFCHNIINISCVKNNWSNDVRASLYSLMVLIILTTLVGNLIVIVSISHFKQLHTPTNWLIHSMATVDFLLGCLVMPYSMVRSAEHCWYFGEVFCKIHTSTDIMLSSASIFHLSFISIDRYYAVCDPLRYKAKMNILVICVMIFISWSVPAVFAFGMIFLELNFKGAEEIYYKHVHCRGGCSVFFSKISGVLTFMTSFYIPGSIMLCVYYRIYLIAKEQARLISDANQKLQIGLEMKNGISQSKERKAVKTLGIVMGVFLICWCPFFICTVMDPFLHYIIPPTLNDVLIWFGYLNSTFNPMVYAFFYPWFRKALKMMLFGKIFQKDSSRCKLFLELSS
The experiment in a line: [3H]-TYR binding (saturation and displacement) to human SNORF33 COS-7 membranes. As to conditions: for Ki: human SNORF33 in transfected COS-7 membranes. Also on record: expressed in transfected cells; host or cells: COS-7 (membranes). On the procedure:
as §1, with “[^3H]-TYR and [^3H]-T binding assays were performed essentially as described by Mallard et al. (1992), with minor modifications. Radioligand” for “Radioligand”
as §2

For test [4], the target named is T1, rSNORF33. The experiment in a line: Cl- currents in Xenopus oocytes expressing rSNORF33 and CFTR (voltage clamp). The class given is cell-based. The note with it: for Cl- currents elicited: at 100 μM. The procedure: Female Xenopus laevis (Xenopus-1, Ann Arbor, Mich.) were anesthetized in 0.2% tricain (3-aminobenzoic acid ethyl ester, Sigma Chemical Corp.) and a portion of ovary was removed using aseptic technique (Quick and Lester, 1994). Oocytes were defolliculated, using 3 mg/ml collagenase (Worthington Biochemical Corp., Freehold, N.J.) in a solution containing 82.5 mM NaCl, 2 mM KCl, 1 mM MgCl2 and 5 mM HEPES, pH 7.5, and injected (Nanoject, Drummond Scientific, Broomall, Pa.) 24 h later with 50-70 nl of individual mRNAs or mRNA mixtures (see below).
Elevation of intracellular cAMP is monitored in oocytes by expression of the cystic fibrosis transmembrane conductance regulator (CFTR) whose Cl^−-selective pore opens in response to phosphorylation by protein kinase A (Riordan, 1993). To prepare RNA transcripts for expression in oocytes, a template was created by PCR using 5′ and 3′ primers derived from the published sequence of the CFTR gene (Riordan, 1993). The 5′ primer included the sequence coding for T7 polymerase so that transcripts could be generated directly from the PCR products without cloning. Oocytes were injected with 10 ng of CFTR mRNA in addition to 10-15 ng mRNA for SNORF33. Electrophysiological recordings were made after a 2-3 day incubation at 18° C.
Dual electrode voltage clamp (“GeneClamp”, Axon Instruments Inc., Foster City, Calif.) was performed using 3 M KCl-filled glass microelectrodes having resistances of 1-3 Mohms. Unless otherwise specified, oocytes were voltage clamped at a holding potential of −80 mV. During recordings, oocytes were bathed in continuously flowing (1-3 ml/min) medium containing 96 mM NaCl, 2 mM KCl, 1.8 mM CaCl2, 1 mM MgCl2, and 5 mM HEPES, pH 7.5 (ND96). […] Experiments were carried out at room temperature. All values are expressed as mean±standard error of the mean.

For the next test, the target named is T3, mouse SNORF33 (Mus musculus, UniProt Q923Y8).
T3 construct: expressed in transfected cells; host or cells: COS-7 (membranes)
The experiment in a line: [3H]-TYR binding (saturation and displacement) to mouse SNORF33 COS-7 membranes. On the procedure:
as §1, with “[^3H]-TYR and [^3H]-T binding assays were performed essentially as described by Mallard et al. (1992), with minor modifications. Radioligand” for “Radioligand”
as §2

Where [5] appears, read: read-out: Mean Ki ± S.D.M., displacement of [3H]-tyramine.
Where [6] appears, read: transiently transfected COS-7 cells, 3–8 experiments, read-out: Mean EC50 ± S.E.M., stimulation of rSNORF33 measured by intracellular cAMP release.

Where “and” joins values, the source holds several entries; their conditions need not be identical. Equal entries are not always repeated. Where two headings read alike, the source gives them in different places.

T3 sequence (Q923Y8 whole entry): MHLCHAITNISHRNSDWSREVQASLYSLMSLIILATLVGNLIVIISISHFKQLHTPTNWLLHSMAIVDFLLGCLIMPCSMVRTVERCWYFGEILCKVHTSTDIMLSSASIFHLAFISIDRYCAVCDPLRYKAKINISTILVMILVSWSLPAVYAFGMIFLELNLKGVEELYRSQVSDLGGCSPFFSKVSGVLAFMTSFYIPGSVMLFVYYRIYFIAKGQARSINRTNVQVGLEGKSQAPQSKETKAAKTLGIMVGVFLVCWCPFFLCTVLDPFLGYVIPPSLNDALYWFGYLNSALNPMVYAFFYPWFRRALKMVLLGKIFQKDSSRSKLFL
T1 sequence (Q923Y9 whole entry): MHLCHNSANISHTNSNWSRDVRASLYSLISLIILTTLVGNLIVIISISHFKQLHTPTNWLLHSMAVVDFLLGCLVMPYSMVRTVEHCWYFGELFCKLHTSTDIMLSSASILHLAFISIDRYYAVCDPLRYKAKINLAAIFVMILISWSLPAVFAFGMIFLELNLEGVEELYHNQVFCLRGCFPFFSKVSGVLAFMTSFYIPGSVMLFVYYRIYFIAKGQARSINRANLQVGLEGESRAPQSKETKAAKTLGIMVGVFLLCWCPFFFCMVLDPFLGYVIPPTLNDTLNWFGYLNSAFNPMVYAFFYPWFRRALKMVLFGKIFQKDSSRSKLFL

Turning to `Cc1ccc(N(CC2=NCCN2)c2cccc(O)c2)cc1` [phentolamine], the “Antagonism of TYR stimulation of rSNORF33” value (“Antagonism” below) on rSNORF33 [1] is “agonist effect”. Take `NCCc1c[nH]cn1` [histamine]: the “Agonist activity at cloned rSNORF33 receptor” value on rSNORF33 [2] was “inactive”. By Ki is commonly meant a dissociation constant, usually derived from enzyme kinetics or from competition with a known ligand. With `NCCc1cccc(O)c1` [3-OH-PEA], the inhibition constant Ki was 529 ± 236 nM at rSNORF33 [3] and 79 ± 16 nM at hSNORF33 (setting [5]).

In general, EC50 refers to the midpoint of the concentration-response curve. Regarding `Cc1ccc2[nH]cc(CCN)c2c1` [5-Methyl-Tryptamine], the EC50 on rSNORF33 [2] (setting [6]) was determined as 752 ± 285 nM. As for `NCCc1ccc(O)c(O)c1` [Dopamine (DA), Dopamine], at rSNORF33 [4], the “Cl- currents elicited” value is “more weakly”. On to `NCCc1c[nH]c2ccc(F)cc12` [5-Fluoro-Tryptamine], for which the EC50 at rSNORF33 [2] (setting [6]) was 232 ± 38 nM. For the compound `CC(COc1ccccc1)N(CCCl)Cc1ccccc1` (centres unmarked) [Phenoxybenzamine], the “Antagonism” value at rSNORF33 [1] is “irreversible inhibition”. In the case of `CN[C@@H](C)Cc1ccccc1` [Methamphetamine], at rSNORF33 [2] (setting [6]), the EC50 stood at 115 ± 66 nM. The Ki came out at 391 ± 246 nM at rSNORF33 [3] and 189 ± 102 nM at hSNORF33 (setting [5]). For `c1ccc(C2CC2)c(OCC2=NCCN2)c1` [cirazoline], at rSNORF33 [4] (test compound 100 μM except where noted, 100 nM TYR (EC80)), the “Inhibition of the response to TYR” value is on record as “greater than 90%”.

Regarding `CC(C)NCC(O)COc1cccc2[nH]ccc12` (centres unmarked) [pindolol], the “Antagonism” value on rSNORF33 [1] is recorded as “significantly block”. As to `COC(=O)[C@@H]1[C@H]2C[C@H]3c4[nH]c5ccccc5c4CCN3C[C@@H]2CC[C@@H]1O` [yohimbine], on rSNORF33 [1], the “Antagonism” value is on record as “did not significantly inhibit”.

Turning to `CC(C)NCC(O)COc1cccc2ccccc12` (centres unmarked) [propanolol], the “Antagonism” value at rSNORF33 [1] is listed as “significantly block”. Turning to `CC(N)C(O)c1ccccc1` (centres unmarked) [Phenylpropanolamine (PPA), Phenylpropanolamine], the EC50 on rSNORF33 [2] came to 1800 ± 1380 nM. For the compound `C1CNCCN1` [piperazine], the Ki on mouse SNORF33 (mouse SNORF33, displacement of [3H]TYR, n=2, read-out: Average Ki) is 1950 nM; at rSNORF33 [3], 82 nM; on hSNORF33 (read-out: Ki, displacement of [3H]-tyramine), greater than 10000 nM. Turning to `NCCC(=O)c1ccccc1N` [Kynuramine], the EC50 on rSNORF33 [2] (setting [6]) came out at 90 ± 20 nM. Moreover, the inhibition constant (Ki) is 485 ± 9 nM at rSNORF33 [3] and 1390 ± 810 nM at hSNORF33 (setting [5]). The term Kd denotes the concentration at which binding is half-saturated. Take `NCCc1ccc(O)cc1` [[^3H]-TYR]: the “Specific binding as % of total binding” value was “approximately 94%” at mouse SNORF33 (at about 15 nM [3H]-TYR, mouse SNORF33) and roughly 70% at hSNORF33 (at about 15 nM [3H]-TYR, human SNORF33). The “Bmax, saturation binding” value at mouse SNORF33 (mouse SNORF33 membranes) was 1090 fmol/mg protein and 848 fmol/mg protein; at rSNORF33 [3] (rSNORF33 COS-7 membranes, n=2), 1400 fmol/mg protein and 1164 fmol/mg protein; on hSNORF33 (human SNORF33 membranes) it was 440 fmol/mg protein and 603 fmol/mg protein. Also, the Specific binding at rSNORF33 [3] (20 nM radioligand, rSNORF33) was 90%. For the same compound, the Kd on rSNORF33 [3] (rSNORF33 COS-7 membranes, n=2) was 12.5 nM and 14.8 nM. With `CN1C[C@H](CNC(=O)OCc2ccccc2)C[C@@H]2c3cccc4c3c(cn4C)C[C@H]21` [metergoline], the “Antagonism” value at rSNORF33 [1] is “significantly block”. For the compound `CNCCCN1c2ccccc2CCc2ccccc21` [Desipramine], at rSNORF33 [2] (setting [6]), the EC50 came out at 4300 ± 1870 nM.

Regarding `CN1CCN2c3ccccc3Cc3ccccc3C2C1` (centres unmarked) [mianserin], the “Antagonism” value on rSNORF33 [1] is “did not significantly inhibit”. For the compound `NC[C@H](O)c1ccc(O)c(O)c1` [NE, norepinephrine], the “Agonist activity at cloned rSNORF33 receptor” value on rSNORF33 [2] was “inactive”. As for `COc1ccc2[nH]cc(CCN)c2c1` [5-Methoxy-Tryptamine], the EC50 at rSNORF33 [2] (setting [6]) was determined as 414 ± 161 nM. The Ki at rSNORF33 [3] was determined as 209 ± 68 nM. Take `COC(=O)[C@H]1[C@H]2C[C@H]3c4[nH]c5ccccc5c4CCN3C[C@H]2CC[C@@H]1O` [rauwolscine]: the “Antagonism” value at rSNORF33 [1] is “did not significantly inhibit”. `NCCc1c[nH]c2ccc(O)cc12` [Serotonin (5-HT), 5-Hydroxytryptamine]: the “Cl- currents elicited” value at rSNORF33 [4] is listed as “more weakly”. Moreover, the EC50 on rSNORF33 [4] (oocytes expressing rSNORF33 and CFTR, -80 mV, mean ± S.E.M., read-out: Calculated EC50, Cl- current) is 3776 ± 3.17 nM; on rSNORF33 [2] (setting [6]) it was 1240 ± 526 nM. Moreover, the “Fold less potent than the three trace amines (TYR, PEA, T) in activating rSNORF33” value on rSNORF33 [2] (cAMP assay) came to 70 fold. The Ki on rSNORF33 [3] worked out at 976 ± 120 nM.

The values are drawn from patent US7517658B2, “Methods for preparing compositions using a SNORF33 receptor” (H. Lundbeck A/S, priority 1999, dated 2009).
